Source: patent publication US7951399B2, “Process for activation of drugs in a vibrational mill” (Eurand Pharmaceuticals Ltd., priority 2001, dated 2011)
In brackets after ≈: the same amount, converted by molar mass.

Test: physchem

SMILES: CC(C)Cc1ccc(C(C)C(=O)O)cc1 (stereo not shown) [Ibuprofen]
- solubility: 73 µg/mL (≈ 354 µM)
